Data: patent US20260130933A1, “PHARMACEUTICAL COMPOSITION FOR PREVENTION OR TREATMENT OF NEPHROPATHY AND/OR DIABETES MELLITUS, COMPRISING ENAVOGLIFLOZIN” (DAEWOONG PHARMACEUTICAL CO., LTD., priority 2022, published 2026)

Experiment: Example 2: phase 3 trial, enavogliflozin 0.3 mg vs dapagliflozin 10 mg once a day for 24 weeks added to metformin in patients with type 2 diabetes (same efficacy, exploratory and safety endpoints)
Type: in vivo, human
Conditions: for fasting Total cholesterol, Mean (SD) / fasting Total cholesterol, Median / Change from baseline in Total cholesterol, ANCOVA LS mean (SE) / Change from baseline in Total cholesterol, Mean (SD) / Change from baseline in total cholesterol, Median: modified per-protocol set 1; for fasting Total cholesterol, Mean (SD) / fasting Total cholesterol, Median / Change from baseline in FPG, ANCOVA LS mean (SE) / Change from baseline in FPG, Mean (SD) / Change from baseline in FPG, Median / Change from baseline in HbA1c, ANCOVA LS mean (SE) / Change from baseline in HbA1c, Mean (SD) / Change from baseline in HbA1c, Median / Change from baseline in body weight, ANCOVA LS mean (SE) / Change from baseline in body weight, Mean (SD) / Change from baseline in body weight, Median / Change from baseline in fasting c-peptide, ANCOVA LS mean (SE) / Change from baseline in fasting c-peptide, Mean (SD) / Change from baseline in fasting c-peptide, Median / FPG, Mean (SD) / FPG, Median / HbA1c, Mean (SD) / HbA1c, Median / Subjects achieving HbA1c target of <6.5%, (%) / Subjects achieving therapeutic glycemic response, (%) / body weight, Mean (SD) / body weight, Median / fasting c-peptide, Mean (SD) / fasting c-peptide, Median / Change from baseline in Total cholesterol, ANCOVA LS mean (SE) / Change from baseline in Total cholesterol, Mean (SD) / Change from baseline in total cholesterol, Median: enavogliflozin 0.3 mg, dapagliflozin 10 mg; for Change from baseline in FPG, ANCOVA LS mean (SE) / Change from baseline in FPG, Mean (SD) / Change from baseline in FPG, Median / Change from baseline in HbA1c, ANCOVA LS mean (SE) / Change from baseline in HbA1c, Mean (SD) / Change from baseline in HbA1c, Median / Change from baseline in body weight, ANCOVA LS mean (SE) / Change from baseline in body weight, Mean (SD) / Change from baseline in body weight, Median / Change from baseline in fasting c-peptide, ANCOVA LS mean (SE) / Change from baseline in fasting c-peptide, Mean (SD) / Change from baseline in fasting c-peptide, Median / FPG, Mean (SD) / FPG, Median / HbA1c, Mean (SD) / HbA1c, Median / Subjects achieving HbA1c target of <6.5%, (%) / Subjects achieving therapeutic glycemic response, (%) / body weight, Mean (SD) / body weight, Median / fasting c-peptide, Mean (SD) / fasting c-peptide, Median: per-protocol set
Method: Subjects who met the inclusion/exclusion criteria were administered a placebo of the clinical trial drug under single-blind (subject blinding) conditions during a 2-week run-in period while continuing to receive metformin. […] The randomized subjects were administered two tablets of the clinical trial drug for each administration group once a day, and then visited the institution at weeks 6, 12, 18, and 24 during the 24-week administration period to conduct efficacy and safety evaluations.
• 1. Change in HbA1c at week 24 after administration of clinical trial drug compared to Visit 2 (randomization)
• 1. Change in HbA1c at each time point of weeks 6, 12, and 18 after administration of clinical trial drug compared to Visit 2 (randomization) • 2. Change in FPG at each time point of weeks 6, 12, 18, and 24 after administration of clinical trial drug compared to Visit 2 (randomization) • 3. Proportion of subjects achieving HbA1c<7% at each time point of weeks 6, 12, 18, and 24 after administration of clinical trial drug • 4. Proportion of subjects achieving HbA1c<6.5% at each time point of weeks 6, 12, 18, and 24 after administration of clinical trial drug • 5. Proportion of subjects achieving therapeutic response (HbA1c change (HbA1c at Visit 2-HbA1c at each evaluation time point)>0.5% or HbA1c<7% at each evaluation time point compared to Visit 2 (randomization)) at each time point of weeks 6, 12, 18 and 24 after administration of clinical trial drug
• 1. Change in fasting c-peptide at each time point of weeks 6, 12, 18, and 24 after administration of clinical trial drug compared to Visit 2 (randomization) • 2. Change in body weight at each time point of weeks 6, 12, 18, and 24 after administration of clinical trial drug compared to Visit 2 (randomization) • 3. Change in fasting lipid concentration (total cholesterol, LDL-C, HDL-C, and triglycerides) at each time point of weeks 6, 12, 18, and 24 after administration of clinical trial drug compared to Visit 2 (randomization) • 4. Changes in systolic or diastolic blood pressure at each time point of weeks 6, 12, 18, and 24 after administration of clinical trial drug compared to Visit 2 (randomization) • 5. Changes in β-cell function and insulin resistance measured by HOMA-β and HOMA-IR at each time point of weeks 6, 12, 18, and 24 after administration of clinical trial drug compared to Visit 2 (randomization) • 6. Changes in renal function-related indicators (UACR, UGCR) measured by UACR at each time point of weeks 6, 12, 18, and 24 after administration of clinical trial drug compared to Visit 2 (randomization) • 7. Changes in obesity-related indicators (adiponectin, leptin) at each time point of weeks 6, 12, 18, and 24 after administration of clinical trial drug compared to Visit 2 (randomization)

[1] = week 24, listed as dapagliflozin

CCOc1ccc(Cc2cc([C@@H]3O[C@H](CO)[C@@H](O)[C@H](O)[C@H]3O)ccc2Cl)cc1 [Dapagliflozin, reference compound]
fasting Total cholesterol, Mean (SD) (week 12): 143.19(28.59) mg/dL | fasting Total cholesterol, Median (week 12): 138.00 mg/dL | Change from baseline in FPG, ANCOVA LS mean (SE) (week 12): -30.11 mg/dL | Change from baseline in FPG, Mean (SD) (week 12): -31.89 mg/dL | Change from baseline in FPG, Median (week 12): -23.50 mg/dL | Change from baseline in HbA1c, ANCOVA LS mean (SE) (week 12): −0.79 % p | Change from baseline in HbA1c, Mean (SD) (week 12): −0.74 % p | Change from baseline in HbA1c, Median (week 12): −0.66 % p | Change from baseline in body weight, ANCOVA LS mean (SE) (week 12): −2.63(0.23) kg | Change from baseline in body weight, Mean (SD) (week 12): −2.61(1.66) kg | Change from baseline in body weight, Median (week 12): -2.55 kg | Change from baseline in fasting c-peptide, ANCOVA LS mean (SE) (week 12): −0.09(0.02) ng/mL | Change from baseline in fasting c-peptide, Mean (SD) (week 12): −0.08(0.18) ng/mL | Change from baseline in fasting c-peptide, Median (week 12): -0.10 ng/mL | FPG, Mean (SD) (week 12): 117.78 mg/dL | FPG, Median (week 12): 116.50 mg/dL | HbA1c, Mean (SD) (week 12): 6.94% | HbA1c, Median (week 12): 6.83% | Subjects achieving HbA1c target of <6.5%, (%) (week 12): (26.14) % | Subjects achieving therapeutic glycemic response, (%) (week 12): (79.55) % | body weight, Mean (SD) (week 12): 68.19(11.65) kg | body weight, Median (week 12): 66.90 kg | fasting c-peptide, Mean (SD) (week 12): 0.66(0.23) ng/mL | fasting c-peptide, Median (week 12): 0.65 ng/mL | FPG change from baseline, LS mean (SE) (week 18): −31.13(1.63) mg/dL | HOMA-IR change from baseline, LS mean (SE) (week 18): −1.47(0.12) | HOMA-β change from baseline, LS mean (SE) (week 18): 13.49(3.08) | HbA1c change from baseline, LS mean (SE) (week 18): −0.70(0.06) % p | LDL-C change from baseline, LS mean (SE) (week 18): 2.58(1.89) mg/dL | Subjects achieving HbA1c target of <7% (week 18): (57.47) % | Subjects achieving HbA1c<6.5% (week 18): 25.29% | Subjects achieving therapeutic response (HbA1c change >0.5% or HbA1c<7%) (week 18): 73.56% | UACR change from baseline, LS mean (SE) (week 18): −12.95(5.11) g/kg | diastolic blood pressure change from baseline, LS mean (SE) (week 18): −4.10(0.81) mmHg | fasting c-peptide change from baseline, LS mean (SE) (week 18): −0.06(0.19) ng/ml | leptin change from baseline, LS mean (SE) (week 18): −1.23(0.53) ng/mL | Subjects achieving HbA1c target of <7% (week 18, listed as dapagliflozin): 57.47% | Change from baseline in Total cholesterol, ANCOVA LS mean (SE) (week 18): 9.57(2.20) mg/dL | Change from baseline in Total cholesterol, Mean (SD) (week 18): 10.18(22.74) mg/dL | Change from baseline in total cholesterol, Median (week 18): 9.00 mg/dL | fasting Total cholesterol, Mean (SD) (week 18): 148.48(30.10) mg/dL | fasting Total cholesterol, Median (week 18): 151.50 mg/dL | Change from baseline in FPG, ANCOVA LS mean (SE) (week 18): -31.13 mg/dL | Change from baseline in FPG, Mean (SD) (week 18): -32.55 mg/dL | Change from baseline in FPG, Median (week 18): -26.00 mg/dL | Change from baseline in HbA1c, ANCOVA LS mean (SE) (week 18): −0.70 % p | Change from baseline in HbA1c, Mean (SD) (week 18): −0.66 % p | Change from baseline in HbA1c, Median (week 18): −0.61 % p | Change from baseline in body weight, ANCOVA LS mean (SE) (week 18): −3.16(0.26) kg | Change from baseline in body weight, Mean (SD) (week 18): −3.19(1.93) kg | Change from baseline in body weight, Median (week 18): -3.00 kg | Change from baseline in fasting c-peptide, ANCOVA LS mean (SE) (week 18): −0.06(0.02) ng/mL | Change from baseline in fasting c-peptide, Mean (SD) (week 18): −0.06(0.19) ng/mL | Change from baseline in fasting c-peptide, Median (week 18): -0.03 ng/mL | FPG, Mean (SD) (week 18): 116.53 mg/dL | FPG, Median (week 18): 115.00 mg/dL | HbA1c, Mean (SD) (week 18): 7.02% | HbA1c, Median (week 18): 6.90% | Subjects achieving HbA1c target of <6.5%, (%) (week 18): (25.29) % | Subjects achieving therapeutic glycemic response, (%) (week 18): (73.56) % | body weight, Mean (SD) (week 18): 67.54(11.96) kg | body weight, Median (week 18): 67.00 kg | fasting c-peptide, Mean (SD) (week 18): 0.69(0.24) ng/mL | fasting c-peptide, Median (week 18): 0.66 ng/mL | FPG change from baseline, LS mean (SE) (week 24): −29.14(1.82) mg/dL | HOMA-IR change from baseline, LS mean (SE) (week 24): −1.31(0.14) | HOMA-β change from baseline, LS mean (SE) (week 24): 11.93(3.25) | HbA1c change from baseline, LS mean (SE) (week 24): −0.75 % p | HbA1c change from baseline, Mean (SD) (week 24): −0.71 % p | HbA1c, Mean (week 24): 6.97% | LDL-C change from baseline, LS mean (SE) (week 24): 0.93(1.98) mg/dL | Subjects achieving HbA1c target of <7% (week 24): (62.22) % | Subjects achieving HbA1c<6.5% (week 24): 27.78% | Subjects achieving therapeutic response (HbA1c change >0.5% or HbA1c<7%) (week 24): 75.56% | UACR change from baseline, LS mean (SE) (week 24): −17.37(3.48) g/kg | UGCR change from baseline, LS mean (SE) (week 24): 44.94(2.18) mg/mg | diastolic blood pressure change from baseline, LS mean (SE) (week 24): −4.26(0.67) mmHg | fasting c-peptide change from baseline, LS mean (SE) (week 24): −0.04(0.26) ng/ml | leptin change from baseline, LS mean (SE) (week 24): −1.28(0.53) ng/mL | HbA1c change from baseline, LS mean (SE) [1]: −0.75(0.06) % p | HbA1c change from baseline, Mean (SD) [1]: −0.71(0.76) % p | Subjects achieving HbA1c target of <7% [1]: 62.22% | Change from baseline in Total cholesterol, ANCOVA LS mean (SE) (week 24): 6.74(2.30) mg/dL | Change from baseline in Total cholesterol, Mean (SD) (week 24): 9.15(22.59) mg/dL | Change from baseline in total cholesterol, Median (week 24): 10.00 mg/dL | fasting Total cholesterol, Mean (SD) (week 24): 147.02(27.55) mg/dL | fasting Total cholesterol, Median (week 24): 145.00 mg/dL | Change from baseline in FPG, ANCOVA LS mean (SE) (week 24): -29.14 mg/dL | Change from baseline in FPG, Mean (SD) (week 24): -31.42 mg/dL | Change from baseline in FPG, Median (week 24): -24.00 mg/dL | Change from baseline in body weight, ANCOVA LS mean (SE) (week 24): −3.58(0.34) kg | Change from baseline in body weight, Mean (SD) (week 24): −3.60(2.14) kg | Change from baseline in body weight, Median (week 24): -3.40 kg | Change from baseline in fasting c-peptide, ANCOVA LS mean (SE) (week 24): −0.04(0.02) ng/mL | Change from baseline in fasting c-peptide, Mean (SD) (week 24): −0.04(0.26) ng/mL | Change from baseline in fasting c-peptide, Median (week 24): -0.07 ng/mL | FPG, Mean (SD) (week 24): 117.91 mg/dL | FPG, Median (week 24): 116.50 mg/dL | Subjects achieving HbA1c target of <6.5%, (%) (week 24): (27.78) % | Subjects achieving therapeutic glycemic response, (%) (week 24): (75.56) % | body weight, Mean (SD) (week 24): 66.92(11.89) kg | body weight, Median (week 24): 66.05 kg | fasting c-peptide, Mean (SD) (week 24): 0.70(0.30) ng/mL | fasting c-peptide, Median (week 24): 0.66 ng/mL
